# Data published in patent US8492334B2, “Sustained intraocular delivery of drugs from biodegradable polymeric microparticles” (Yale University, priority 2007, dated 2013).
# Structures can show the parent of a compound that is named as a salt. Where two headings read alike, the source gives them in different places.
# B1: BDNF: brain-derived neurotrophic factor, a protein neurotrophic factor (protein, UniProt P23560 19-247, looked up)
# Neurotrophic factor BDNF …: APMKEANIRGQGGLAYPGVRTHGTLESVNGPKAGSRGLTSLADTFEHVIEELLDEDQKVRPNEENNKDADLYTSRVMLSSQVPLEPPLLFLLEEYKNYLDAANMSMRVRRHSDPARRGELSVCDSISEWVTAADKKTAVDMSGGTVTVLEKVPVSKGQLKQYFYETKCNPMGYTKEGCRGIDKRHWNSQCRTTQSYVRALTMDSKKRIGWRFIRIDTSCVCTLTIKRGR
# B2: NT-3: neurotrophic factor in the NGF family of neurotrophins (protein, UniProt P20783 139-257, looked up)
# Neurotrophin-3: YAEHKSHRGEYSVCDSESLWVTDKSSAIDIRGHQVTVLGEIKTGNSPVKQYFYETRCKEARPVKNGCRGIDDKHWNSQCKTSQTYVRALTSENNKLVGWRWIRIDTSCVCALSRKIGRT
# B3: NT-4: neurotrophic factor in the NGF family of neurotrophins (protein, UniProt P34130 81-210, looked up)
# Neurotrophin-4: GVSETAPASRRGELAVCDAVSGWVTDRRTAVDLRGREVEVLGEVPAAGGSPLRQYFFETRCKADNAEEGGPGAGGGGCRGVDRRHWVSECKAKQSYVRALTADAQGRVGWRWIRIDTACVCTLLSRTGRA
# Assays:
# [1] = administered topically as a solution; cited from earlier work
# [2] = eye drops, cited from earlier work
# [3] = Release of timolol maleate in vitro from microspheres; type: physicochemical; settings: 20% w/w timolol maleate to PLGA; AOT 147 mM in first emulsion step, or Span 20 in its place
# Protocol: In 1.5 ml eppendorf tubes, 10 mg of timolol containing or blank microparticles were reconstituted with 1 ml of phosphate buffered saline (PBS). Samples were prepared in triplicate. The samples were incubated at 37° C. on a labquake rotating shaker (Barnstead/Thermolyne; Dubuque, Iowa, USA). At specific time points (1, 3, 5, and 8 hours; 1, 2, 3, 5, and 7 days; and once every 7 days thereafter until no pellets remained), the samples were centrifuged and the supernatant collected. 1 ml of PBS was added to the replace the withdrawn supernatant and the microparticles were resuspended and returned to the shaker. Supernatants for each of the sets of microspheres was frozen and stored at −80° C. for subsequent analysis using UV spectroscopy at 293 nm.
# The drug loading was 20% weight of timolol maleate to weight of polymer. The particles were stored in deionized water at 37° C. Following centrifugation at predetermined time points, the supernatant was extracted and timolol maleate content measured. FIG. 3 depicts the same values expressed as a percentage of the loading values in FIG. 1.
# [4] = system: adult rat retinal ganglion cells; settings: cited from earlier work; for delay of onset of axotomy-induced RGC death: intraocular administration at the time of axotomy; for effect on survival of RGCs after axotomy: intraocular administration
Molecule,delay of onset of axotomy-induced RGC death [4],effect on survival of RGCs after axotomy [4],also measured
CC(C)(C)NC[C@H](O)COc1nsnc1N1CCOCC1 [Timolol maleate],,,average IOP reduction [1]: 20-35%; systemic absorption of the administered drug [2]: approximately 80%; topically administered drug reaching the aqueous humor [2]: less than 1%; systemic absorption of the administered drug ([2]; listed as timolol maleate): ~80%
Span 20,,,effect of added surfactant on loading or release of timolol maleate [3]: no significant effect
B1,approximately 3 days,neuroprotective effect,
B2,,did not modify the survival of RGCs,
B3,approximately 3 days,neuroprotective effect,
